Experimental data: US8809542B2, “Salts of benzimidazole compound and use thereof” (Takeda Pharmaceutical Company Limited, priority 2000, dated 2014)

Test: Storage stability of the crystal in a hermetically sealed glass bottle, content (residual percentage) by HPLC
Type: physicochemical
Details: for description: appearance
Procedure: The crystal of a sodium salt obtained in Example 1 (about 5 mg) was served into a colorless glass bottle, the bottle was hermetically sealed by a stopper, and stability of the crystal during storage at 60° C. for 4 weeks was examined. 25 ml of a sample (concentration: about 0.2 mg/ml) was prepared by dissolving the sample after completion of storage in a mobile phase. The sample solution along with a standard solution prepared by using the initial lot (a frozen sample stored for the same term), was analyzed under the HPLC conditions shown below, and the content (residual percentage) was calculated from the peak area obtained.
[HPLC Analytical Conditions]
Detection wavelength: UV 275 nm
Mobile phase: Fluid prepared by adding phosphoric acid to water/acetonitrile/triethylamine (63:37:1) to adjust pH 7
Column temperature: 40° C.
Sample injection volume: 10 μL

For `Cc1c(OCC(F)(F)F)ccnc1C[S@@+]([O-])c1nc2ccccc2[n-]1.[Na+]` [Example 1, sodium salt of (R)-2-[[[3-methyl-4-(2,2,2-trifluoroethoxy)-2-pyridinyl]methyl]sulfinyl]-1H-benzimidazole], the “content (residual percentage)” value (freeze-storage for the same term (initial lot used as standard)) was “[100] %”, the description (freeze-storage) was “nearly white” and the “content (residual percentage)” value (solid crystal stored at 60° C. (airtight) for 4 weeks, HPLC peak area vs frozen initial lot, listed as crystal of Ex. 1) was 99.2%. The “content (residual percentage)” value (solid crystal stored at 60° C. (airtight) for 4 weeks, HPLC peak area vs frozen initial lot, listed as crystal of a sodium salt of R(+)-lansoprazole) was “exceeding 99%” and the description (solid crystal stored at 60° C. (airtight) for 4 weeks) was “nearly white”.
